Assay results as given in patent US6384077B1, “Highly purified EPA for treatment of schizophrenia and related disorders” (Laxdale Limited, priority 1999, dated 2002).

Tests used:
Assay type in all cases: in vivo, human
[1] = tested on: Huntington's disease; assay: randomised double blind trial of 96% pure ethyl-EPA in Huntington's disease; details: 2 g/day, 6 months
Protocol: Because early Huntington's disease may present with schizophrenia-like features, a randomised trial of 96% pure ethyl-EPA was set up in seven severely disabled patients in the final stages of Huntington's disease. All required 24 hour nursing care, had severe movement disorders, were irritable and were partially demented. They were randomised on a double blind basis to receive 2 g/day ethyl-EPA or 2 g/day placebo for 6 months. […] In four of the patients, two on ethyl-EPA and two on placebo, the brain degeneration was assessed at the beginning and end of the study by magnetic resonance imaging (MRI). MRI allows an accurate assessment of the size of the lateral ventricles, the fluid-filled spaces within the cerebral hemispheres. As Huntington's disease progresses, the lateral ventricles enlarge indicating loss of brain tissue. In the two patients on placebo over 6 months the ventricles enlarged as expected.

[2] = tested on: severe depression; assay: case history: severe depression, ethyl-EPA added to citalopram; details: 1 g/day in addition to citalopram, after four weeks
Excerpt: In addition to citalopram they were then given 1 g/day of ethyl-EPA. […] Another case was a young person who dropped out of college with a schizophrenic breakdown.

[3] = tested on: bipolar disorder; assay: case reports: five patients with bipolar disorder; details: 2 g/day after switch from fish oil
Excerpt: This provided 1.8-3.6 g of EPA and 1.2-2.4 g of DHA per day. […] They were, however, far from completely normal. When the pure ethyl-EPA became available, they were switched from the fish oil to the pure EPA at a dose of 2 g/day in the form of four 0.5 g soft gelatin capsules. […] In particular they all noted an improvement in something which is difficult to measure by conventional psychiatric rating scales. This is a sense of inner tension or dysphoria, a state which is associated with the illness, but which may be exaggerated or changed by antipsychotic drugs to a state of confused tension, sometimes described as a sense of the brain being replaced by cotton wool, and a difficulty of thinking clearly in a straight line. […] They had not noticed this effect which being treated with the higher dose of EPA in the form of the EPA/DHA mix in fish oil.

[4] = tested on: schizophrenia; assay: case report: schizophrenia, fish oil switched to ethyl-EPA
Excerpt: This provided around 1.9 g/day of EPA and 0.6 g/day of DHA. They were not taking other antipsychotic drugs. […] However, when they did this the symptoms returned and it was concluded that they had to take around 2 g/day of EPA to remain well. When the purified ethyl-EPA became available, they were switched to 4×0.5 g capsules, also providing around 2 g/day. […] They therefore dropped the dose to 1 g/day.

[5] = tested on: attention deficit hyperactivity disorder (ADHD); assay: case report: child with ADHD; details: two capsules per day, after two weeks
Excerpt: Attention deficit hyperactivity disorder (ADHD): ADHD and closely related conditions like attention deficit disorder and conduct disorders are commonly found in children. Occasionally they may be successfully treated by behaviour modification and other psychological techniques or by careful attention to diet. However, in most cases, paradoxical treatment with one of the stimulant drugs related in their action to amphetamine is required. Methylphenidate and dextroamphetamine are the commonest used. A child with serious ADHD since infancy was driving their parents to distraction. […] The parents were concerned about the long term consequences of stimulant drugs. The child was therefore tried on two capsules of pure ethyl-EPA per day. […] The child became less tense and irritable, less hyperactive, more open to reasoned discussion and enormously less disruptive both at home and school. Even when their methylphenidate was stopped, their behaviour remained improved.

[6] = tested on: dementia; assay: case report: person with dementia; details: 4x0.5 g capsules per day, within four weeks
Excerpt: Dementia: A person developed dementia, probably of Alzheimer type but possibly with multi-infarct contributions because of associated cardiovascular disease. As often occurs they also became withdrawn and depressed but, unfortunately, this state was interrupted by irrational and violent outbursts, usually directed at members of their family, but also sometimes against complete strangers. They were tried on two cholinergic drugs: although these produced a small improvement in their cognitive state they did nothing for their depression, irritability and anger. They were tried on a dose of 4×0.5 g capsules of pure ethyl-EPA, two given in the morning and two in the evening. […] Their family also thought their cognition had improved but this is difficult to be certain of because of their improved mood.

[7] = tested on: clozapine-induced hypersalivation; assay: three clozapine-treated patients with hypersalivation
Excerpt: Clozapine is regarded as a particularly effective drug by many psychiatrists but it has a range of severe side effects. From the patient's point of view one of the most troublesome is hypersalivation. This may not sound very serious but the constant flow of large volumes of saliva is in fact very distressing for the patient and for those who are associated with the patient. The mechanism of the hypersalivation is unknown.

[8] = tested on: panic and anxiety disorders; assay: case histories: panic and anxiety disorders
Protocol: We have now treated several patients who have panic and anxiety disorders with purified ethyl-EPA with excellent effect. Three case histories follow. A person was disabled as a result of frequent and uncontrollable panic attacks and palpitations. […] They were then given a dose of 2 g per day of ethyl EPA as four 500 mg capsules. […] A person had suffered from mild anxiety and panic attacks for most of their life but these had become much worse over the previous few years in association with various problems with their children. Anxiolytics and antidepressants had only modest effects and their palpitations were uncontrolled even by relatively high doses of beta-blockers. Again they were treated with ethyl-EPA over a period of four months. […] The third patient was a housewife who had been through two divorces and was now in a long-term relationship. They had several panic attacks every week, sometimes in the middle of the night, and always accompanied by strong palpitations which were very worrying for them. These panic attacks were accompanied by depression. They were very reluctant to go out for fear of having an attack and this seriously disrupted their life. Again, antidepressants, beta-blockers and anxiolytics had had only limited beneficial effects. […] Sometimes, they felt that an attack of palpitations might be coming on but it rarely materialised. As a result, they felt increasing confidence and was able to resume a much more normal life.

CC/C=C\C/C=C\C/C=C\C/C=C\C/C=C\CCCC(=O)OCC [ethyl-EPA]
clinical course of Huntington's disease ([1]; three patients): improved | lateral ventricle size by MRI ([1]; two patients): reduction in lateral ventricle size | effect on mood [2]: lightening of mood | clinical condition in bipolar disorder [3]: clinical condition improved considerably | sense of dysphoria, tension and cotton-wool thinking [3]: greatly reduced or disappeared altogether | recurrence of symptoms after dose reduction ([4]; 1 g/day): did not lead to a recurrence of symptoms | control of schizophrenia symptoms ([4]; 4x0.5 g capsules, around 2 g/day): controlled their symptoms very well | behaviour in ADHD [5]: substantial improvement in behaviour | mood and irritability in dementia [6]: remarkable improvement | psychiatric state [7]: substantial improvement in psychiatric state | salivation [7]: dramatically reduced the salivation to normal levels | panic attacks and palpitations ([8]; housewife, four months): dramatic reduction in their panic attacks and palpitations | panic attacks and palpitations ([8]; person, 2 g per day, three months): almost absent | anxiety and panic attacks ([8]; person, four months): much less severe
